In US10266544B2, “Aryl substituted aminomethyl spectinomycin analogs as antibacterial agents” (ST. JUDE CHILDREN'S RESEARCH HOSPITAL, INC., priority 2013, dated 2019):
≈ marks a conversion by molar mass, not a printed value. Where a name gives a salt, the structure may show the parent alone. Read-outs that look alike come from different tables or passages of the source.

Key:
Assay type in all cases: cell-based
[1] = system: Klebsiella pneumoniae (ATCC 33495); test: MIC determination, microbroth dilution; conditions: ATCC33495
[2] = system: Haemophilus influenza (ATCC 49247); test: microbe, parasite or virus in culture
[3] = system: live vaccine strain (LVS) of Francisella tularensis; test: microbe, parasite or virus in culture; conditions: Francisella tularensis
[4] = system: Streptococcus pneumoniae clinical isolates representing several serotypes; test: MIC determination, Streptococcus pneumoniae panel of clinical isolates (Table 7); conditions: Streptococcus pneumoniae
[5] = system: Legionella pneumophila (ATCC 33153); test: microbe, parasite or virus in culture; conditions: ATCC33153, 72 h, read-out: Zone of inhibition L.p.
[6] = system: Burkholderia cepacia (ATCC 25416); test: MIC determination, microbroth dilution
[7] = system: acinetobacter baumannii (ATCC 19606); test: MIC determination, microbroth dilution; conditions: ATCC19606
[8] = system: Yersinia pestis; test: microbe, parasite or virus in culture; conditions: read-out: MIC Y.p.
[9] = system: Proteus mirabilis (ATCC 25933); test: MIC determination, microbroth dilution; conditions: ATCC25933
[10] = system: Stenotrophomonas maltophilia (ATCC 13637); test: MIC determination, microbroth dilution; conditions: ATCC13637; Stenotrophomonas maltophilia (ATCC 13637); read-out: MIC S.m.
[11] = system: Enterococcus faecalis (ATCC 33186); test: MIC determination, microbroth dilution; conditions: ATCC33186; Enterococcus faecalis (ATCC 33186); read-out: MIC E.f.
[12] = system: Neisseria gonorrhoeae (ATCC 49226); test: Agar MIC determination (Alamar Blue); conditions: ATCC49226, agar MIC, read-out: MIC N.g.
[13] = system: Streptococcus pyogenes (ATCC 700294); test: MIC determination, microbroth dilution; conditions: ATCC700294; Streptococcus pyogenes (ATCC 700294); read-out: MIC S. py.
[14] = system: Escherichia coli (ATCC 700926); test: MIC determination, microbroth dilution; conditions: ATCC700926; Escherichia coli (ATCC 700926); read-out: MIC E.c.
[15] = system: M. tuberculosis clinical isolates; test: microbe, parasite or virus in culture; conditions: Mycobacterium tuberculosis
[16] = system: Bacillus subtilis (ATCC 23857); test: MIC determination, microbroth dilution; conditions: ATCC23857; Bacillus subtilis (ATCC 23857); read-out: MIC B.s.
[17] = system: Pseudomonas aeruginosa (PA01); test: MIC determination, microbroth dilution
[18] = system: Proteus vulgaris (ATCC 33420); test: MIC determination, microbroth dilution; conditions: ATCC33420
[19] = system: Listeria monocytogenes; test: MIC determination (Table 6)
[20] = system: Bacillus anthracis; test: microbe, parasite or virus in culture; conditions: read-out: MIC B.a.
[21] = system: E. coli K12 ΔtolC; test: microbe, parasite or virus in culture; conditions: Escherichia coli, read-out: MIC E.c. Δtolc
[22] = system: Moraxella catarrhalis; test: MIC determination (Table 6)
[23] = system: Streptococcus pneumoniae (R6); test: MIC determination, microbroth dilution
[24] = system: Neisseria meningitides (ATCC 13077); test: Disc diffusion assay; conditions: ATCC13077, 4 μg per disc, read-out: Zone of inhibition N.m.
[25] = system: Neisseria gonorrhoeae (ATCC 49226); test: Disc diffusion assay; conditions: ATCC49226, 4 μg per disc, read-out: Zone of inhibition N.g.
[26] = system: MRSA, Staphylococcus aureus (NRS70); test: MIC determination, microbroth dilution; conditions: Staphylococcus aureus (NRS70); read-out: MIC MRSA
[27] = system: Bacillus anthracis, Sterne 34F2; test: microbe, parasite or virus in culture; conditions: STERNE34F2, read-out: MIC B.a.
[28] = system: Staphylococcus aureus (ATCC 29213); test: MIC determination, microbroth dilution; conditions: ATCC29213; Staphylococcus aureus (ATCC 29213); read-out: MIC S.a.
[29] = S. pneumoniae A66.1x, Drug Susceptible, read-out: MIC A66.1x
[30] = S. pneumoniae BHN97x, Drug Susceptible, read-out: MIC BHN97x
[31] = S. pneumoniae Daw7, PenG Resistant, read-out: MIC Daw7
[32] = S. pneumoniae Daw8, PenG Resistant, read-out: MIC Daw8
[33] = S. pneumoniae Daw62, PenG Resistant, read-out: MIC Daw62
[34] = S. pneumoniae Daw64, PenG Resistant, read-out: MIC Daw64
[35] = ATCC49247, Haemophilus influenza, 4 μg per disc, range of at least two experiments, read-out: Zone of inhibition H.i.
[36] = BAA1407, S. pneumoniae BAA-1407, Macrolide Resistant, read-out: MIC BAA-1407
[37] = S. pneumoniae Daw9, PenG Resistant, read-out: MIC Daw9
[38] = S. pneumoniae OVA6, Macrolide Resistant, read-out: MIC OVA6
[39] = S. pneumoniae T4X, Drug Susceptible, read-out: MIC T4X
[40] = Burkholderia cepacia, ATCC25416, read-out: MIC B.c., Burkholderia cepacia (ATCC 25416)
[41] = Burkholderia cepacia, ATCC25416, read-out: MIC B.c., Burkholderia cepacia, Table 6
[42] = Streptococcus pneumoniae (R6), read-out: MIC S. pn.
[43] = Streptococcus pneumoniae, S. pneumoniae R6, Drug Susceptible, read-out: MIC R6

SMILES: CN[C@@H]1[C@H](O)[C@H](NC)[C@H]2O[C@@]3(O)C(=O)C[C@@H](C)O[C@H]3O[C@@H]2[C@H]1O [SPC, (2R,4aR,5aR,6S,7S,8R,9S,9aR,10aS)-4a,7,9-trihydroxy-2-methyl-6,8-bis(methylamino)decahydro-4H-benzo[b]pyrano[2,3-e][1,4]dioxin-4-one, reference compound]
- MIC [1]: > 200 µg/mL
- zone of inhibition at 4 µg/disc ([2]; Haemophilus, ATCC49247, read-out: Zone of inhibition H.i.): 11 to 13 mm
- MIC ([3]; read-out: MIC F.t.): 12.5 to 25 µg/mL (≈ 37.6 to 75.2 µM)
- MIC ([4]; BAA1407, read-out: MIC BAA-1407): 12.5 µg/mL (≈ 37.6 µM)
- MIC ([4]; read-out: MIC D39X): 12.5 µg/mL (≈ 37.6 µM)
- MIC ([4]; read-out: MIC Daw9): 12.5 µg/mL (≈ 37.6 µM)
- MIC ([4]; read-out: MIC OVA6): 12.5 µg/mL (≈ 37.6 µM)
- MIC ([4]; read-out: MIC T4X): 12.5 µg/mL (≈ 37.6 µM)
- MIC [4, 29]: 6.3 µg/mL (≈ 19 µM)
- MIC [4, 30]: 6.3 µg/mL (≈ 19 µM)
- MIC [4, 31]: 25 µg/mL (≈ 75.2 µM)
- MIC [4, 32]: 25 µg/mL (≈ 75.2 µM)
- MIC [4, 33]: 25 µg/mL (≈ 75.2 µM)
- MIC [4, 34]: 25 µg/mL (≈ 75.2 µM)
- zone of inhibition at 4 µg/disc [5]: 0 mm
- MIC ([6]; ATCC25416, Burkholderia cepacia (ATCC 25416), read-out: MIC B.c.): 50 to 100 µg/mL (≈ 150 to 301 µM)
- MIC B.c. ([6]; Burkholderia cepacia, Table 6): 50 to 100 µg/mL
- MIC [7]: > 200 µg/mL
- MIC [8]: 12.5 µg/mL (≈ 37.6 µM)
- MIC [9]: > 200 µg/mL
- MIC [10]: 50 to 200 µg/mL (≈ 150 to 602 µM)
- MIC [11]: 50 to 100 µg/mL (≈ 150 to 301 µM)
- MIC [12]: 50 µg/mL (≈ 150 µM)
- MIC [13]: 25 µg/mL (≈ 75.2 µM)
- MIC [14]: 25 to 50 µg/mL (≈ 75.2 to 150 µM)
- MIC ([15]; H37RV, read-out: MIC H37Rv): 100 µg/mL (≈ 301 µM)
- MIC ([15]; read-out: MIC TN022): 200 µg/mL (≈ 602 µM)
- MIC ([15]; read-out: MIC TN026): 200 µg/mL (≈ 602 µM)
- MIC [16]: 25 µg/mL (≈ 75.2 µM)
- MIC [17]: 50 to 100 µg/mL (≈ 150 to 301 µM)
- MIC [18]: 50 µg/mL (≈ 150 µM)
- MIC [19]: 25 to 50 µg/mL (≈ 75.2 to 150 µM)
- MIC [20]: 25 µg/mL (≈ 75.2 µM)
- MIC [21]: 3.1 to 12.5 µg/mL (≈ 9.33 to 37.6 µM)
- MIC [22]: 3.1 to 6.3 µg/mL (≈ 9.33 to 19 µM)
- MIC ([23]; Streptococcus pneumoniae, read-out: MIC R6): 12.5 µg/mL (≈ 37.6 µM)
- MIC ([23]; Streptococcus pneumoniae, read-out: MIC S. pn.): 12.5 µg/mL (≈ 37.6 µM)
- zone of inhibition at 4 µg/disc [24]: 13 to 14 mm
- zone of inhibition at 4 µg/disc [25]: 11 to 13 mm
- MIC [26]: > 200 µg/mL
- MIC [27]: 25 µg/mL (≈ 75.2 µM)

SMILES: CN[C@@H]1[C@H](O)[C@H](NC)[C@H]2O[C@]3(O)[C@H](O[C@@H]2[C@H]1O)O[C@H](C)C[C@@]3(O)CNCc1ccccc1 [compound 1, 3′-(R)-3′-(benzylaminomethyl)dihydrospectinomycin Trihydrochloride]
- MIC [1]: > 200 µg/mL
- zone of inhibition at 4 µg/disc [2, 35]: 16 mm
- MIC ([3]; read-out: MIC F.t.): 3.1 µg/mL
- MIC [4, 36]: 12.5 µg/mL
- MIC [4, 29]: 3.1 µg/mL
- MIC [4, 30]: 3.1 µg/mL
- MIC ([4]; S. pneumoniae D39X, Drug Susceptible, read-out: MIC D39X): 3.1 µg/mL
- MIC [4, 31]: 6.3 µg/mL
- MIC [4, 32]: 6.3 µg/mL
- MIC [4, 37]: 6.3 µg/mL
- MIC [4, 33]: 6.3 µg/mL
- MIC [4, 34]: 6.3 µg/mL
- MIC [4, 38]: 6.3 µg/mL
- MIC [4, 39]: 6.3 µg/mL
- zone of inhibition at 4 µg/disc [5]: 36 to 40 mm
- MIC [6, 40]: ≥ 200 µg/mL
- MIC [6, 41]: ≥ 200 µg/mL
- MIC [7]: > 200 µg/mL
- MIC [8]: 100 to 200 µg/mL
- MIC [9]: > 200 µg/mL
- MIC [10]: 25 µg/mL
- MIC [11]: 25 µg/mL
- MIC [12]: 100 µg/mL
- MIC [13]: 3.1 to 6.3 µg/mL
- MIC [14]: 100 µg/mL
- MIC ([15]; H37RV, read-out: MIC H37Rv): 25 µg/mL
- MIC [16]: 3.1 µg/mL
- MIC [17]: > 200 µg/mL
- MIC [18]: 200 µg/mL
- MIC [19]: 25 µg/mL
- MIC [20]: 50 µg/mL
- MIC [28]: 50 µg/mL
- MIC [21]: 25 µg/mL
- MIC [22]: 6.3 µg/mL
- MIC [23, 42]: 6.3 to 12.5 µg/mL
- MIC [23, 43]: 6.3 µg/mL
- zone of inhibition at 4 µg/disc [24]: 16 to 22 mm
- zone of inhibition at 4 µg/disc [25]: 16 mm
- MIC [26]: 50 to 100 µg/mL
- MIC [27]: 50 µg/mL

SMILES: CN[C@@H]1[C@H](O)[C@H](NC)[C@H]2O[C@]3(O)[C@H](O[C@@H]2[C@H]1O)O[C@H](C)C[C@@]3(O)CNCc1ccccc1OC(F)(F)F [compound 10, Trihydrochloride]
- MIC [1]: 100 to 200 µg/mL
- zone of inhibition at 4 µg/disc [2, 35]: 0 mm
- MIC [3]: 25 µg/mL
- MIC ([3]; read-out: MIC F.t.): 25 µg/mL
- MIC [4, 36]: 25 µg/mL
- MIC [4, 31]: 12.5 µg/mL
- MIC [4, 32]: 12.5 µg/mL
- MIC [4, 37]: 12.5 µg/mL
- MIC [4, 33]: 12.5 µg/mL
- MIC [4, 34]: 25 µg/mL
- MIC [4, 38]: 6.3 µg/mL
- MIC [4, 39]: 3.1 µg/mL
- MIC [6, 40]: > 200 µg/mL
- MIC [6, 41]: > 200 µg/mL
- MIC [7]: 100 to 200 µg/mL
- MIC [8]: 200 µg/mL
- MIC [9]: > 200 µg/mL
- MIC [10]: 50 µg/mL
- MIC [11]: 200 µg/mL
- MIC [12]: 200 µg/mL
- MIC [13]: 25 to 50 µg/mL
- MIC [14]: 200 µg/mL
- MIC ([15]; H37RV, read-out: MIC H37Rv): 200 µg/mL
- MIC [16]: 50 µg/mL
- MIC [17]: 200 µg/mL
- MIC [18]: > 200 µg/mL
- MIC [19]: 100 µg/mL
- MIC [20]: 200 µg/mL
- MIC [28]: 200 µg/mL
- MIC [21]: 25 to 50 µg/mL
- MIC [22]: 50 to 100 µg/mL
- MIC [23, 42]: 25 µg/mL
- MIC [23, 43]: 12.5 µg/mL
- zone of inhibition at 4 µg/disc [24]: 0 mm
- zone of inhibition at 4 µg/disc [25]: 8 mm
- MIC [26]: 200 µg/mL
- MIC [27]: 200 µg/mL
